Laboratory results taken from patent US20230398130A1, “METHODS AND COMPOSITIONS FOR DIFFERENTIATING STEM CELLS” (Massachusetts Institute of Technology, priority 2020, published 2023).

How the values were obtained:
ISC-enriched organoids [1] = test: Primary screen, 384-well 2.5-D organoid differentiation (ENR+CD, 6 days): basal lysozyme secretion (LYZ.NS); format: cell-based, murine; conditions: primary screen; for Dose.FC.LYZ.NS: FC vs plate median; for Z.LYZ.NS: standard z score; for SSMD.LYZ.NS: strictly standardized mean difference
Source text: (§1) High-throughput screening.

ISC-enriched organoids [2] = test: Primary screen, 384-well 2.5-D organoid differentiation (ENR+CD, 6 days, Target Selective Inhibitor Library, vs whole-plate median): ATP (CellTiter-Glo 3D, CTG); conditions: primary screen; for Dose.FC.CTG: FC vs plate median; for Z.CTG: standard z score; for SSMD.CTG: strictly standardized mean difference
ISC-enriched organoids [3] = test: Primary screen, 384-well 2.5-D organoid differentiation (ENR+CD, 6 days): carbachol-induced lysozyme secretion (LYZ.S); format: cell-based, murine; conditions: primary screen; for Dose.FC.LYZ.S: FC vs plate median; for Z.LYZ.S: standard z score; for SSMD.LYZ.S: strictly standardized mean difference
Source text: as §1

[4] = 1st of the 4 dose lines of the treatment (dose not given)
[5] = 2nd of the 4 dose lines of the treatment (dose not given)
[6] = 3rd of the 4 dose lines of the treatment (dose not given)
[7] = 4th of the 4 dose lines of the treatment (dose not given)

SMILES	SSMD.LYZ.NS (ISC-enriched organoids [1]; [4])	SSMD.LYZ.NS (ISC-enriched organoids [1]; [5])	SSMD.LYZ.NS (ISC-enriched organoids [1]; [6])	SSMD.LYZ.NS (ISC-enriched organoids [1]; [7])	Z.CTG (ISC-enriched organoids [2]; Dose 0.08 uM)	Z.CTG (ISC-enriched organoids [2]; Dose 0.40 uM)	Z.CTG (ISC-enriched organoids [2]; Dose 2.00 uM)	Z.CTG (ISC-enriched organoids [2]; Dose 10.00 uM)	SSMD.CTG (ISC-enriched organoids [2]; [4])	SSMD.CTG (ISC-enriched organoids [2]; [5])	SSMD.CTG (ISC-enriched organoids [2]; [6])	SSMD.CTG (ISC-enriched organoids [2]; [7])	Z.LYZ.S (ISC-enriched organoids [3]; [4])	Z.LYZ.S (ISC-enriched organoids [3]; [5])	Z.LYZ.S (ISC-enriched organoids [3]; [6])	Z.LYZ.S (ISC-enriched organoids [3]; [7])	SSMD.LYZ.S (ISC-enriched organoids [3]; [4])	SSMD.LYZ.S (ISC-enriched organoids [3]; [5])	SSMD.LYZ.S (ISC-enriched organoids [3]; [6])	SSMD.LYZ.S (ISC-enriched organoids [3]; [7])	further results
Oc1ccc2ccccc2c1SSc1c(O)ccc2ccccc12 [IPA-3]	0.027	0.026	−0.008	−0.175	0.524	−0.793	−0.202	−0.128	0.818	−0.408	−0.316	−0.172	0.413	−0.202	0.431	−0.347	0.356	−0.184	0.324	−0.305	Dose.FC.LYZ.NS (ISC-enriched organoids [1]; Dose 0.08 uM): 0.004 log 2 fold change; Z.LYZ.NS (ISC-enriched organoids [1]; Dose 0.08 uM): 0.031; Dose.FC.LYZ.NS (ISC-enriched organoids [1]; Dose 0.40 uM): 0.003 log 2 fold change; Z.LYZ.NS (ISC-enriched organoids [1]; Dose 0.40 uM): 0.028; Dose.FC.LYZ.NS (ISC-enriched organoids [1]; Dose 2.00 uM): −0.001 log 2 fold change; Z.LYZ.NS (ISC-enriched organoids [1]; Dose 2.00 uM): −0.010; Dose.FC.LYZ.NS (ISC-enriched organoids [1]; Dose 10.00 uM): −0.021 log 2 fold change; Z.LYZ.NS (ISC-enriched organoids [1]; Dose 10.00 uM): −0.186; Dose.FC.CTG (ISC-enriched organoids [2]; Dose 0.08 uM): 0.219 log 2 fold change; Dose.FC.CTG (ISC-enriched organoids [2]; Dose 0.40 uM): −0.332 log 2 fold change; Dose.FC.CTG (ISC-enriched organoids [2]; Dose 2.00 uM): −0.084 log 2 fold change; Dose.FC.CTG (ISC-enriched organoids [2]; Dose 10.00 uM): −0.054 log 2 fold change; Dose.FC.LYZ.S (ISC-enriched organoids [3]; Dose 0.08 uM): 0.064 log 2 fold change; Dose.FC.LYZ.S (ISC-enriched organoids [3]; Dose 0.40 uM): −0.031 log 2 fold change; Dose.FC.LYZ.S (ISC-enriched organoids [3]; Dose 2.00 uM): 0.067 log 2 fold change; Dose.FC.LYZ.S (ISC-enriched organoids [3]; Dose 10.00 uM): −0.054 log 2 fold change
C#Cc1cccc(Nc2ncnc3cc4c(cc23)OCCOCCOCCO4)c1 [Icotinib]	0.227	−0.710	−1.321	−2.654	−0.047	−0.146	−0.970	−2.552	−0.065	−0.162	−0.865	−3.189	0.609	−0.583	−1.572	−2.708	0.689	−0.544	−1.726	−1.917	
